These results are taken from ChEMBL document CHEMBL1201862, “PubChem BioAssay data set” (2004).

Test systems include UO-31; SF-539; SK-OV-3; M14; PC-3; SW-620; NCI-H460; OVCAR-5; UACC-257; SF-268; UACC-62; SK-MEL-28; HL-60; OVCAR-8; LOX IMVI; A549; HCT-15; Malme-3M; HOP-62; NCI-H226.
Test in all cases: DTP human tumour cell line panel, 48 h

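Following 48 hours of exposure in 96-well plates, responses at five concentrations were used to interpolate endpoints linearly. Here, GI50 denotes the concentration required for 50% inhibition of growth.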 Calls of active or inactive are those of the source. Rule as the data show it: active = GI50 up to about 1.1 µM and inactive = higher.

A word on the GI50: it is the concentration giving 50% growth inhibition.

Regarding `Cc1cc(NCc2ccccc2)c2ccccc2[n+]1CCCCCCCCCC[n+]1c(C)cc(NCc2ccccc2)c2ccccc21.[O-][Cl+3]([O-])([O-])[O-].[O-][Cl+3]([O-])([O-])[O-]`, the GI50 in the assay with UO-31 is 1.86 µM (inactive); with SF-539, 0.308 µM (active); in the assay with SK-OV-3, 0.365 µM (active); with M14 it was 1.21 µM (inactive); in the assay with PC-3, 0.458 µM (active); in the assay on SW-620, 0.752 µM (active). The GI50 in the assay with NCI-H460 was 0.228 µM (active); with OVCAR-5 it was 2.19 µM (inactive); with UACC-257, 0.274 µM (active); with SF-268 it was 0.478 µM (active); in the assay with UACC-62 it was 0.31 µM (active); in the assay on SK-MEL-28, 0.71 µM (active). The GI50 in the assay with HL-60 was 0.265 µM (active); in the assay on OVCAR-8, 0.431 µM (active); in the assay on LOX IMVI it was 0.238 µM (active); in the assay with A549, 0.394 µM (active); in the assay on HCT-15, 1.89 µM; in the assay on Malme-3M, 4.06 µM (inactive).
Regarding `Cc1cc(O)c(C(c2cccnc2)c2c(O)cc(C)[nH]c2=O)c(=O)[nH]1`, the GI50 in the assay with UO-31, in the assay with SK-OV-3, in the assay on M14, in the assay with PC-3, with NCI-H460 and in the assay with OVCAR-5 was > 100 µM (inactive) each time. Moreover, the GI50 with UACC-257, in the assay on SF-268, with UACC-62, with SK-MEL-28, in the assay with HL-60 and in the assay on HOP-62 was > 100 µM (inactive) each time. Besides, the GI50 in the assay with OVCAR-8 was > 100 µM (inactive); with LOX IMVI, > 100 µM (inactive); in the assay with A549, > 100 µM (inactive); in the assay on HCT-15 it was more than 100 µM; in the assay on Malme-3M, > 100 µM (inactive).
Consider `NN/C(=N\S(=O)(=O)c1cccc2nsnc12)Nc1ccc(Cl)cc1`, for which the GI50 in the assay with UO-31, in the assay with SF-539, with SK-OV-3, with M14, in the assay with PC-3 and in the assay with SW-620 was > 100 µM (inactive) in each case. The GI50 in the assay with NCI-H226 was > 100 µM (inactive); in the assay on NCI-H460, > 100 µM (inactive); with OVCAR-5, > 100 µM (inactive); in the assay with UACC-257, > 100 µM (inactive); in the assay with SF-268, 26.2 µM (inactive); in the assay with UACC-62 it was > 100 µM (inactive). The GI50 with SK-MEL-28 is > 100 µM (inactive); with HL-60 it was 9.98 µM (inactive); with HOP-62 it was > 100 µM (inactive); in the assay on OVCAR-8 it was > 100 µM (inactive); with LOX IMVI it was > 100 µM (inactive); in the assay with A549 it was > 100 µM (inactive). In the assay on HCT-15, the GI50 was more than 100 µM.
For the compound `O=C(CSCC(=O)N/N=C/c1cc(I)cc(I)c1O)N/N=C/c1cc(I)cc(I)c1O`, the GI50 in the assay with UO-31 was 13.2 µM (inactive); in the assay on SF-539 it was 7.57 µM (inactive); in the assay with SK-OV-3 it was 10.8 µM (inactive); in the assay with M14 it was 17.8 µM (inactive); in the assay with PC-3, 32.3 µM (inactive); in the assay on SW-620 it was 13.6 µM (inactive). The GI50 was 7.91 µM (inactive) in the assay with NCI-H226; 25.6 µM (inactive) with NCI-H460; 39.5 µM (inactive) with OVCAR-5; 22.4 µM (inactive) in the assay on UACC-257; 4.34 µM (inactive) with SF-268; 12.8 µM (inactive) in the assay with UACC-62. The GI50 in the assay on SK-MEL-28 was 18.9 µM (inactive); in the assay with HL-60, 6.18 µM (inactive); in the assay with HOP-62, 9.27 µM (inactive); in the assay with OVCAR-8, 6.34 µM (inactive); in the assay on A549, 27.4 µM (inactive); in the assay on HCT-15 it was 17.9 µM. Further, the GI50 with Malme-3M is 18.1 µM (inactive).
`Cn1c(=O)c2nc(CCNC(=O)c3ccccc3)[nH]c2n(C)c1=O`: the GI50 in the assay with UO-31, with M14, in the assay with PC-3, in the assay with SW-620, in the assay with NCI-H226 and in the assay with NCI-H460 was > 100 µM (inactive) throughout. The GI50 in the assay on OVCAR-5, in the assay on UACC-257, in the assay on SF-268, in the assay with UACC-62, in the assay with SK-MEL-28 and in the assay on HOP-62 was > 100 µM (inactive) in each case. The GI50 in the assay with OVCAR-8 is > 100 µM (inactive); in the assay on LOX IMVI, > 100 µM (inactive); with A549 it was > 100 µM (inactive); in the assay with HCT-15 it was more than 100 µM; in the assay with Malme-3M it was > 100 µM (inactive).
With `NC(=O)C[S+]([O-])CC(N)C(=O)O` (stereo unspecified), the GI50 in the assay on UO-31, in the assay on M14, in the assay on PC-3, in the assay on SW-620, in the assay with NCI-H226 and in the assay with NCI-H460 was > 100 µM (inactive) throughout. The GI50 in the assay on OVCAR-5, in the assay on UACC-257, in the assay on SF-268, in the assay with UACC-62, in the assay with SK-MEL-28 and with HOP-62 was > 100 µM (inactive) in each case. For the same compound, the GI50 is > 100 µM (inactive) in the assay on OVCAR-8; > 100 µM (inactive) with LOX IMVI; > 100 µM (inactive) in the assay on A549; more than 100 µM with HCT-15; > 100 µM (inactive) in the assay with Malme-3M.
As to `O=C(c1cccc(F)c1F)N1CCc2c([nH]c3ccccc23)C1c1ccc2c(c1)OCO2` (stereo unspecified), the GI50 in the assay on UO-31 is 10.9 µM (inactive); in the assay on SF-539 it was 4.79 µM (inactive); with SK-OV-3 it was 3.61 µM (inactive); in the assay with M14, 3.85 µM (inactive); in the assay on PC-3 it was 2.97 µM (inactive); with SW-620, 9.71 µM (inactive). In addition, the GI50 with NCI-H460 is 6.56 µM (inactive); in the assay on OVCAR-5, 30.1 µM (inactive); in the assay on UACC-257, 11.2 µM (inactive); with SF-268, 27.3 µM (inactive); in the assay with UACC-62, 5.24 µM (inactive); in the assay on SK-MEL-28 it was 32.1 µM (inactive). Moreover, the GI50 is 3.4 µM (inactive) with HL-60; 0.337 µM (active) with HOP-62; 31.3 µM (inactive) in the assay with OVCAR-8; 20.2 µM (inactive) in the assay on LOX IMVI; 7.08 µM (inactive) with A549; 3.73 µM with HCT-15. For the same compound, in the assay on Malme-3M, the GI50 is 28.4 µM (inactive).
Take `Cc1ccccc1NC(=O)C(=O)CC(=O)c1sc(Nc2ccccc2[N+](=O)[O-])nc1C`: the GI50 in the assay on UO-31 is 10.4 µM (inactive); with SF-539, 29.9 µM (inactive); in the assay on SK-OV-3, 25.2 µM (inactive); with M14, 39.7 µM (inactive); with PC-3 it was 28.1 µM (inactive); with SW-620, 36.1 µM (inactive). The GI50 with NCI-H226 is 34.8 µM (inactive); in the assay with NCI-H460 it was 27.4 µM (inactive); in the assay on OVCAR-5 it was 90.2 µM (inactive); in the assay on UACC-257, 29.9 µM (inactive); with SF-268, 38.5 µM (inactive); in the assay on UACC-62, 18.2 µM (inactive). The GI50 was 25.7 µM (inactive) with SK-MEL-28; 60.4 µM (inactive) with HL-60; 25.2 µM (inactive) with HOP-62; 43.4 µM (inactive) with OVCAR-8; 37.4 µM (inactive) in the assay with LOX IMVI; 34.8 µM (inactive) in the assay with A549. Moreover, growth in the assay with HCT-15 was halved (GI50) at 52.4 µM.
Consider `c1ccc(C2CC(N3CCOCC3)=Nc3ccccc3N2)cc1` (stereo unspecified), for which the GI50 with UO-31, in the assay on SF-539, with SK-OV-3, with M14, in the assay on PC-3 and in the assay on SW-620 was > 100 µM (inactive) throughout. For the same compound, the GI50 in the assay on NCI-H226, with NCI-H460, in the assay with OVCAR-5, in the assay with UACC-257, in the assay on SF-268 and with UACC-62 was > 100 µM (inactive) each time. Besides, the GI50 in the assay with SK-MEL-28 is > 100 µM (inactive); with HL-60 it was > 100 µM (inactive); with HOP-62, > 100 µM (inactive); in the assay on OVCAR-8, > 100 µM (inactive); in the assay with A549, > 100 µM (inactive); with HCT-15 it was more than 100 µM. In addition, the GI50 with Malme-3M was 80.9 µM (inactive).
As to `Oc1ccc(/C=N/CC2CCCN3CCCCC23)cc1` (stereo unspecified), the GI50 in the assay with UO-31 is 23.1 µM (inactive); with SF-539, 62.1 µM (inactive); with SK-OV-3, 46 µM (inactive); in the assay on M14, 26.5 µM (inactive); with PC-3, 26.4 µM (inactive); in the assay on NCI-H226, 21.6 µM (inactive). Moreover, the GI50 was 25.1 µM (inactive) in the assay on NCI-H460; 31.3 µM (inactive) with OVCAR-5; 24.3 µM (inactive) with UACC-257; 24.5 µM (inactive) with SF-268; 24.5 µM (inactive) in the assay on UACC-62; 22.5 µM (inactive) in the assay on SK-MEL-28. For the same compound, the GI50 with HOP-62 was 26.7 µM (inactive); with OVCAR-8, 44 µM (inactive); with LOX IMVI, 21.4 µM (inactive); with A549 it was 27.3 µM (inactive); with HCT-15 it was 24.4 µM; in the assay on Malme-3M, 24.7 µM (inactive).
Consider `CCN1CCC(CNC(=O)c2ccc(N)cc2)N1CC` (stereo unspecified), for which the GI50 in the assay with UO-31, in the assay with SF-539, in the assay on SK-OV-3, with M14, in the assay on PC-3 and with SW-620 was > 100 µM (inactive) throughout. Moreover, the GI50 in the assay with NCI-H226, with NCI-H460, with OVCAR-5, with UACC-257, in the assay with SF-268 and in the assay with UACC-62 was > 100 µM (inactive) in each case. Moreover, the GI50 with SK-MEL-28 is > 100 µM (inactive); in the assay on HL-60 it was > 100 µM (inactive); with HOP-62 it was > 100 µM (inactive); in the assay with OVCAR-8, > 100 µM (inactive); in the assay with A549, > 100 µM (inactive); in the assay on HCT-15 it was more than 100 µM. Further, the GI50 with Malme-3M was > 100 µM (inactive).
